# Assay results taken from patent publication US7807654B2, “Compositions and methods for treatment of mitochondrial diseases” (Wellstat Therapeutics Corporation, priority 1998, dated 2010).
# Legend:
# [1] = test system: child with epilepsy, ataxia, language delay, fat intolerance, dicarboxylic aciduria; assay: Treatment of developmental delay (case, Example 4); format: in vivo, human; settings: daily dose of 0.1 to 0.3 g/kg/day
# Protocol: A child with epilepsy, ataxia, language delay, and fat intolerance, and dicarboxylic aciduria was treated with triacetyluridine at a daily dose of 0.1 to 0.3 g/kg/day.
# taxol-treated mice = assay: Taxol-induced neuropathy, tail-flick latency; format: in vivo; settings: nine days after initiation of taxol 21.6 mg/kg/day i.p. for 6 days; oral triacetyluridine 4000 mg/kg b.i.d.
# Protocol: Two groups of 10 mice each were treated with taxol, 21.6 mg/kg/day for 6 consecutive days by intraperitoneal injection. An additional group of 10 mice received injections of vehicle alone. One of the groups of taxol-treated mice received oral triacetyluridine, 4000 mg/kg b.i.d. Nine days after the initiation of taxol treatments, nociceptive sensory deficits were tested by determining tail-flick latency after exposure of the tip of the tail to focused thermal radiation with an infrared heat lamp. In this system, delays in the tail-flick response to radiant heat correlate with sensory nerve deficits.
# MPTP treated mice [2] = assay: MPTP model of Parkinson's disease, second study; format: in vivo, C57/BL6 mice; settings: MPTP b.i.d. for 2 days, sacrificed on day 9, mean ± SEM
# Protocol: A second study using MPTP (25 mg/kg i.p. b.i.d. for 2 days) was performed. […] TAU or vehicle was given orally (dose of TAU=4 g/kg bw b.i.d.) starting the day before MPTP administration and ending on day 8. Mice were sacrificed on day 9.
# 3NP treated mice [3] = assay: 3-nitropropionic acid (3NP) model of Huntington's disease; format: in vivo, Swiss mice; settings: at anytime during the study
# Protocol: Male 6-8 month old Swiss mice (National Cancer Institute; NCI, Frederick, Md.) were treated with 3NP (65 mg/kg i.p.) daily for 4 days to induce mortality, neuronal cell loss and behavioral impairment with n=8/group. […] On day 9, the mice were perfuse fixed with 10% buffered formalin and processed for silver staining to detect neuronal damage. […] There was no mortality in the 3NP+TAU group, but 3 of 8 mice died in the vehicle+3NP group.
# Behavioral scoring of the 3NP treated mice was to determine whether there was any motor impairment at anytime during the study. There were 88% of the control+3NP treated mice with behavioral impairment indicated by gross observation. A decreased incidence of impairment of only 50% was found in the TAU+3NP treated mice.
# The silver staining was analyzed by a pathologist blinded to the identity of tissue samples. […] However, in the control+3NP treated mice, silver staining of synaptic terminals in the striatal area (caudate/putamen area) and substantia nigra was pronounced. Silver impregnation of axons and/or synaptic terminals in the thalamus, deep mesencephalon and/or reticular formation (medulla) was also found in […] of the control+3NP treated mice. The substantia nigra projects to the striatum and these areas are especially vulnerable to damage by 3NP. The damage to the substantia nigra and striatum was prevented by TAU.
# 3NP treated mice [4] = assay: 3-nitropropionic acid (3NP) model of epilepsy; format: in vivo, CD-1 mice; settings: for Latency to clonic seizure: mean ± SEM
# Description: 3-nitropropionic acid (3NP) is a mitochondrial toxin that acts by inhibiting Complex II of the respiratory chain; it is used to induce brain lesions similar to those characteristic of Huntington's disease. Seizures can also be induced by the use of 3NP as a model of epilepsy and mitochondrial dysfunction. Urbanska et al., Eur J Pharmacol, 359: 55-8 (1998). Male CD-1 mice (National Cancer Institute, NCI, Frederick. Md.) weighing between […] were used throughout. Mice were divided into groups of 5 and animals for each group were randomly chosen from different cages to avoid possible influence of age. The mice were maintained on a 12 hr light dark cycle with free access to water and food. All experiments were performed during the light period between 9:00 and 16:00 hr. Mice (n=17-20) were given 160 mg/kg 3NP and followed for seizures. 3NP was made up at 16 mg or 18 mg/ml in sterile water (pH: 7.4). 3NP was administered i.p. in a volume of 0.1 m/10 g body weight. […] Seizures were assessed similar to the methods previously described (Roberts & Keith, J Pharmacol Exp Ther, 270:505-11, 1994; Urbanska et al., Eur J Pharmacol, 359:55-8, 1998).
# Behavioral observations were performed within 120 min following application of 3-NP. Three major categories of convulsive seizure response were been considered and recorded: • 1. Clonic movements: the movements of the forelimbs accompanied by facial twitching; • 2. Explosive clonic movements: the movement of all four limbs involving running, jumping and bouncing; • 3. Tonic response: including tonic flexion and tonic extension of the all four limbs.
# Mortality rate was evaluated at 120 min after 3NP injection.
# [5] = test system: mice given intrastriatal QA; assay: Quinolinic acid (QA) model of excitotoxicity; format: in vivo, Swiss mice; settings: TAU 4 g/kg bw p.o. b.i.d.
# [6] = test system: mice infused with sodium azide; assay: Subcutaneous azide infusion: mortality, body weight, TUNEL staining; set-up: species or system C57/BL/6N mice; settings: mouse, in vivo
# MPTP treated mice [7] = assay: MPTP model of Parkinson's disease, first study
# [8] = 160 mg/kg 3NP i.p., TAU 4 g/kg p.o. 2 hours prior, within 120 min
compound,measurement,setting,value
"CC(=O)OC[C@H]1O[C@@H](n2ccc(=O)[nH]c2=O)[C@H](OC(C)=O)[C@@H]1OC(C)=O [TAU, triacetyluridine]",decline in seizure frequency,[1],50%
same,Tail flick latency,taxol-treated mice,11.9 ± 0.7 s
same,"Striatal DA, MPTP-treated mice",MPTP treated mice [2],26.7 ± 0.9 ng DA/mg protein
same,mice with behavioral (motor) impairment by gross observation,3NP treated mice [3],50%
same,Latency to clonic seizure,"3NP treated mice [4]; 160 mg/kg 3NP i.p., TAU 4 g/kg p.o. 2 hours prior",40.8 min
same,Latency to clonic seizure,"3NP treated mice [4]; 160 mg/kg 3NP i.p., TAU 4 g/kg p.o. 2 hours prior, listed as TAU + 3NP",40.8 ± 4.9 min
same,% Clonic seizures,3NP treated mice [4]; [8],70.6%
same,% Running seizures,3NP treated mice [4]; [8],5.9%
same,% Mortality,3NP treated mice [4]; at 120 min after 3NP injection,11.8%
same,percent of mice surviving the 7 days,[5]; 50 nmoles QA bilaterally in striatum,73%
same,percent of mice surviving the 7 days,[5]; 100 nmoles QA bilaterally in striatum,19%
same,mortality due to 60 μg/hr azide infusion,[6],30%
same,mortality,"MPTP treated mice [7]; MPTP 30 mg/kg i.p. b.i.d. for 1.5 days, TAU 4 g/kg p.o. b.i.d.",28.6%
same,"Striatal DA, MPTP-treated mice","MPTP treated mice [7]; first study, eight days after stopping MPTP, mean ± SEM",37.9 ± 7.4 ng DA/mg protein
